Tested on: ATF4 luciferase reporter in HEK293T cells
Assay: ATF4-Luc assay (in vitro model of VWMD)
Type: cell-based, human
Settings: Homo sapiens, HEK-293T, 7 h, HEK293T cells carrying the ATF4 luciferase reporter, 1 μg/mL tunicamycin, One Glo luminescence
Experimental: In order to test exemplary compounds of the invention in a cellular context, a stable VWMD cell line was first constructed. The ATF4 reporter was prepared by fusing the human full-length ATF4 5′-UTR (NCBI Accession No. BC022088.2) in front of the firefly luciferase (FLuc) coding sequence lacking the initiator methionine as described in Sidrauski et al (eLife 2013). The construct was used to produce recombinant retroviruses using standard methods and the resulting viral supernatant was used to transduce HEK293T cells, which were then subsequently selected with puromycin to generate a stable cell line.
HEK293T cells carrying the ATF4 luciferase reporter were plated on polylysine coated 384-well plates (Greiner Bio-one) at 30,000 cells per well. Cells were treated the next day with 1 μg/mL tunicamycin and 200 nM of a compound of Formula (I) for 7 hours. Luminescence was measured using One Glo (Promega) as specified by the manufacturer. Cells were maintained in DMEM with L-glutamine supplemented with 10% heat-inactivated FBS (Gibco) and Antibiotic-Antimycotic solution (Gibco).
Table 4 below summarizes the EC50 data obtained using the ATF4-Luc assay for exemplary compounds of the invention.

`O=C(NC12CC(n3cnc(-c4ccc(OC(F)(F)F)c(F)c4F)c3)(C1)C2)[C@H]1C[C@@H](O)c2cc(Cl)ccc2O1` [Compound 391, (2R,4R)-6-chloro-N-(3-{4-[2,3-difluoro-4-(trifluoromethoxy)phenyl]-1H-imidazol-1-yl}bicyclo[1.1.1]pentan-1-yl)-4-hydroxy-3,4-dihydro-2H-1-benzopyran-2-carboxamide] was tested, and the EC50 was < 10 nM.

`O=C(NC12CC(n3cc(OCCOCC(F)(F)F)cn3)(C1)C2)[C@H]1C[C@@H](O)c2cc(Cl)ccc2O1` [Compound 425, (2R,4R)-6-chloro-4-hydroxy-N-(3-{4-[2-(2,2,2-trifluoroethoxy)ethoxy]-1H-pyrazol-1-yl}bicyclo[1.1.1]pentan-1-yl)-3,4-dihydro-2H-1-benzopyran-2-carboxamide] was tested, and the EC50 was < 10 nM.

With `O=C(NC12CC(n3cc([C@@H]4C[C@H]4COC(F)(F)F)cn3)(C1)C2)[C@H]1C[C@@H](O)c2cc(Cl)ccc2O1` (mixture of isomers) [Compound 372, (2R,4R)-6-chloro-4-hydroxy-N-[3-(4-{(1RS,2RS)-2-[(trifluoromethoxy)methyl]cyclopropyl}-1H-pyrazol-1-yl)bicyclo[1.1.1]pentan-1-yl]-3,4-dihydro-2H-1-benzopyran-2-carboxamide] the EC50 was 10 to 50 nM.

For `O=C(NC12CC(c3cnc([C@H]4C[C@@H](OC(F)(F)F)C4)o3)(C1)C2)[C@H]1C[C@@H](O)c2cc(Cl)ccc2O1` [Compound 410, (2R,4R)-6-chloro-4-hydroxy-N-(3-{2-[cis-3-(trifluoromethoxy)cyclobutyl]-1,3-oxazol-5-yl}bicyclo[1.1.1]pentan-1-yl)-3,4-dihydro-2H-1-benzopyran-2-carboxamide], the EC50 was < 10 nM.

`O=C(N[C@H]1C[C@H]2CC[C@@H](C1)N2CCCOc1ccc(Cl)cc1)C1C[C@@H](O)c2cc(Cl)ccc2O1` (stereo partly drawn) [Compound 125, (2R,4R)-6-chloro-N-{(1R,3r,5S)-8-[3-(4-chlorophenoxy)propyl]-8-azabicyclo[3.2.1]octan-3-yl}-4-hydroxy-3,4-dihydro-2H-1-benzopyran-2-carboxamide] showed an EC50 of 50 to 250 nM.

`O=C(N[C@@H]1CC[C@@H](C(=O)N2CC(c3ccc(C(F)(F)F)cc3)C2)OC1)[C@H]1C[C@@H](O)c2cc(Cl)ccc2O1` [Compound 322, (2R,4R)-6-chloro-4-hydroxy-N-[(3R,6S)-6-{3-[4-(trifluoromethyl)phenyl]azetidine-1-carbonyl}oxan-3-yl]-3,4-dihydro-2H-1-benzopyran-2-carboxamide] was tested, and the EC50 was < 10 nM.

`CCOc1ccc2nn(C34CC(NC(=O)COc5ccc(Cl)c(Cl)c5)(C3)C4)cc2c1` [Compound 623, 2-(3,4-dichlorophenoxy)-N-[3-(5-ethoxy-2H-indazol-2-yl)bicyclo[1.1.1]pentan-1-yl]acetamide] was tested, and the EC50 was < 10 nM.

`O=C(N[C@H]1CC[C@H](n2cc(OCCOC(F)(F)F)cn2)CC1)[C@H]1C[C@@H](O)c2cc(Cl)ccc2O1` [Compound 421, (2R,4R)-6-chloro-4-hydroxy-N-[(1r,4R)-4-{4-[2-(trifluoromethoxy)ethoxy]-1H-pyrazol-1-yl}cyclohexyl]-3,4-dihydro-2H-1-benzopyran-2-carboxamide] was tested, and the EC50 was < 10 nM.

For `O=C(NC12CC(n3cc(-c4ccc(C(F)(F)F)cn4)cn3)(C1)C2)[C@@H]1CNc2cc(Cl)ccc2O1` [Compound 573, (2S)-6-chloro-N-(3-{4-[5-(trifluoromethyl)pyridin-2-yl]-1H-pyrazol-1-yl}bicyclo[1.1.1]pentan-1-yl)-3,4-dihydro-2H-1,4-benzoxazine-2-carboxamide], the EC50 was 10 to 50 nM.

Molecule `O=C(NC12CC(n3cc(C(=O)N4CCC(OC(F)(F)F)CC4)cn3)(C1)C2)[C@H]1C[C@@H](O)c2cc(Cl)ccc2O1` [Compound 366, (2R,4R)-6-chloro-4-hydroxy-N-(3-{4-[4-(trifluoromethoxy)piperidine-1-carbonyl]-1H-pyrazol-1-yl}bicyclo[1.1.1]pentan-1-yl)-3,4-dihydro-2H-1-benzopyran-2-carboxamide] has an EC50 of 50 to 250 nM.

In the case of `COc1ccc2nn(C34CC(NC(=O)C5CNc6cc(C(F)(F)F)c(F)cc6O5)(C3)C4)cc2c1` (stereo not drawn) [Compound 653, 7-fluoro-N-[3-(5-methoxy-2H-indazol-2-yl)bicyclo[1.1.1]pentan-1-yl]-6-(trifluoromethyl)-3,4-dihydro-2H-1,4-benzoxazine-2-carboxamide], the EC50 is reported as 50 to 250 nM.

With `O=C(NC12CC(n3cc(-c4cnc(C5CC5)nc4)cn3)(C1)C2)[C@H]1C[C@@H](O)c2cc(Cl)ccc2O1` [Compound 365, (2R,4R)-6-chloro-N-{3-[4-(2-cyclopropylpyrimidin-5-yl)-1H-pyrazol-1-yl]bicyclo[1.1.1]pentan-1-yl}-4-hydroxy-3,4-dihydro-2H-1-benzopyran-2-carboxamide] the EC50 was < 10 nM.

For `COc1ccc2cn(C34CC(NC(=O)[C@H]5C[C@@H](O)c6cc(Cl)c(F)cc6O5)(C3)C4)nc2c1` [Compound 504, (2R,4R)-6-chloro-7-fluoro-4-hydroxy-N-[3-(6-methoxy-2H-indazol-2-yl)bicyclo[1.1.1]pentan-1-yl]-3,4-dihydro-2H-1-benzopyran-2-carboxamide], the EC50 was < 10 nM.

In the case of `O=C(CO[C@H]1C[C@@H](OC(F)(F)F)C1)NC12CC(NC(=O)[C@H]3C[C@@H](O)c4cc(Cl)ccc4O3)(C1)C2` [Compound 164, (2R,4R)-6-chloro-4-hydroxy-N-[3-(2-{[cis-3-(trifluoromethoxy)cyclobutyl]oxy}acetamido)bicyclo[1.1.1]pentan-1-yl]-3,4-dihydro-2H-1-benzopyran-2-carboxamide], the EC50 is reported as < 10 nM.

With `O=C(NC12CC(n3cc([C@@H]4CC[C@H](OC(F)(F)F)C4)nn3)(C1)C2)[C@H]1C[C@@H](O)c2cc(Cl)ccc2O1` (mixture of isomers) [Compound 539, (2R,4R)-6-chloro-4-hydroxy-N-(3-{4-[(1RS,3SR)-3-(trifluoromethoxy)cyclopentyl]-1H-1,2,3-triazol-1-yl}bicyclo[1.1.1]pentan-1-yl)-3,4-dihydro-2H-1-benzopyran-2-carboxamide] the EC50 was 10 to 50 nM.

In the case of `O=C(CO[C@H]1C[C@@H](OC(F)(F)F)C1)NC12CCC(NC(=O)[C@H]3C[C@@H](O)c4cc(Cl)c(F)cc4O3)(CC1)C[C@@H]2O` [Compound 488, (2R,4R)-6-chloro-7-fluoro-4-hydroxy-N-[(3S)-3-hydroxy-4-(2-{[(1s,3R)-3-(trifluoromethoxy)cyclobutyl]oxy}acetamido)bicyclo[2.2.2]octan-1-yl]-3,4-dihydro-2H-1-benzopyran-2-carboxamide], the EC50 is reported as < 10 nM.

In the case of `O=C(NC12CC(n3cc(OCCCOC(F)(F)F)cn3)(C1)C2)[C@H]1C[C@@H](O)c2cc(Cl)ccc2O1` [Compound 431, (2R,4R)-6-chloro-4-hydroxy-N-(3-{4-[3-(trifluoromethoxy)propoxy]-1H-pyrazol-1-yl)bicyclo[1.1.1]pentan-1-yl)-3,4-dihydro-2H-1-benzopyran-2-carboxamide], the EC50 is reported as < 10 nM.

In the case of `O=C(NC12CC(n3cc(-c4cnc(C(F)(F)F)c(F)c4)cn3)(C1)C2)[C@H]1C[C@@H](O)c2cc(Cl)ccc2O1` [Compound 347, (2R,4R)-6-chloro-N-(3-{4-[5-fluoro-6-(trifluoromethyl)pyridin-3-yl]-1H-pyrazol-1-yl}bicyclo[1.1.1]pentan-1-yl)-4-hydroxy-3,4-dihydro-2H-1-benzopyran-2-carboxamide], the EC50 is reported as < 10 nM.

Source: US20250145594A1, “MODULATORS OF THE INTEGRATED STRESS PATHWAY” (Calico Life Sciences LLC, priority 2020, published 2025)
